Laboratory results: PMC7150977, “Regional Intestinal Drug Permeability and Effects of Permeation Enhancers in Rat” (Pharmaceutics, 2020)
Where two headings read alike, the source gives them in different places. One block for each molecule: values may come before it.

How the values were obtained:
[1] = tested on: jejunum and colon; assay: Regional comparison (jejunum vs colon, pH 6.5 vs 7.4) of Peff in rat SPIP; format: in vivo; settings: plasma appearance
Description: The ratio was compared using the paired student’s t-test with the Benjamini–Hochberg multiple t-test correction. Multiple comparisons between groups were performed using a two-way ANOVA with a post-hoc Holm–Sidak multiple comparison test. Log transformation of values was performed when the original measured data were heteroscedastic and not normally distributed; this was investigated using the Bartlett test. Differences were considered to be statistically significant for p-values < than 0.05.

[2] = First-pass extraction (Ffirstpass) in rat intestine and liver; format: in vivo; settings: based on literature data, iv plasma CL and liver blood flow 47 mL/min/kg
[3] = tested on: colon; settings: control solutions, mean ±SD, n = 38
Description: A linear regression analysis of the plasma samples was made to obtain a corresponding plasma value for each perfusate sample. The blood-to-lumen CLCr-EDTA was calculated using Equation (1) [16]. (1) CLCr−EDTA=Cperfusate × Qin/Cplasma × tissue weight ×100 where Cperfusate and Cplasma is the activity in the perfusate and plasma (cpm/mL), and Qin is the flow rate (mL/min). CLCr-EDTA was determined during the last 45 min for the control solution and during the last 60 min for the test solutions, of which the first 15 min of each period were for equilibration.

[4] = tested on: jejunum; assay: Rat single-pass intestinal perfusion (SPIP), jejunal lumen-to-blood Peff from plasma appearance; format: in vivo; settings: 100 µM, mean ±SD, n = 6
[5] = tested on: jejunum; design: method as in PMID 31201856; settings: rat jejunum SPIP, cited from earlier work
[6] = tested on: jejunum and colon; settings: human study; cited from earlier work
[7] = design: method as in PMID 9836611; settings: n-octanol-water; cited from earlier work
[8] = tested on: colon; settings: male, Han Wistar, rat, in vivo, 60 min, 100 µM
[9] = tested on: intestine; settings: pH 6.5, human SPIP model; cited from earlier work
[10] = tested on: intestine; settings: pH 6.5, rat SPIP model; cited from earlier work
[11] = design: method as in patent wo2012080471, 6; settings: dog, oral with permeation enhancer; ref patent wo2012080471, 6; cited from earlier work
[12] = Jejunum pH 6.5, control solution
[13] = Jejunum pH 7.4, control solution

difference in jejunal and colonic basal Peff [1]: no differences
Ffirstpass (first-pass extraction compensation value) [2]: 1.0
Molecule: CC(C)NCC(O)COc1ccc(CC(N)=O)cc1 (centres unmarked) [Atenolol, atenolol]

colonic CLCr-EDTA (blood-to-lumen clearance) [3]: 0.038 ± 0.050 mL/min/100 g
Molecule: O=C([O-])CN(CCN(CC(=O)[O-])CC(=O)[O-])CC(=O)[O-].[51Cr+3] [Cr-EDTA, ^51chromium-labeled ethylenediaminetetraacetate]

Plasma Appearance Peff [4, 12]: 0.005 ± 0.004 ×10^–4 cm/s
Plasma Appearance Peff [4, 13]: 0.004 ± 0.001 ×10^–4 cm/s
difference in jejunal and colonic basal Peff [1]: no differences
Molecule: C[C@H](N[C@@H](CCc1ccccc1)C(=O)O)C(=O)N1CCC[C@H]1C(=O)O [Enalaprilat, enalaprilat]
permeability from luminal disappearance compared to plasma appearance (times higher) ([5]; same rat): > 10 times

Molecule: CC(C(=O)O)c1cccc(C(=O)c2ccccc2)c1 (centres unmarked) [Ketoprofen, ketoprofen]
difference between permeability from luminal disappearance and plasma appearance [6]: no differences
difference between permeability from luminal disappearance and plasma appearance [5]: no differences

Molecule: COCCc1ccc(OCC(O)CNC(C)C)cc1 (centres unmarked) [Metoprolol, metoprolol]
difference between permeability from luminal disappearance and plasma appearance [6]: no differences
Plasma Appearance Peff [4, 12]: 0.28 ± 0.24 ×10^–4 cm/s
Plasma Appearance Peff [4, 13]: 0.17 ± 0.095 ×10^–4 cm/s
Log P [7]: 2.07
Plasma Appearance Peff ([8]; pH 6.5): 0.41 ± 0.19 ×10^–4 cm/s
Plasma Appearance Peff ([8]; pH 7.4): 0.38 ± 0.15 ×10^–4 cm/s
Ffirstpass (first-pass extraction compensation value) [2]: 0.22
difference between permeability from luminal disappearance and plasma appearance [5]: no differences

Molecule: CCCCCCCCCC(=O)[O-].[Na+] [caprate, sodium caprate]
permeation enhancing effect [9]: no permeation enhancing effect
permeation enhancing effect [10]: no permeation enhancing effect

Molecule: semaglutide
bioavailability [11]: 0.29 % of the oral dose
